Our source for the IC50 and Activity values is ChEMBL document CHEMBL1131713, “Substituted piperidines--highly potent renin inhibitors due to induced fit adaptation of the active site” (Bioorg Med Chem Lett, 1999).

Assay [1] addresses T1, Renin (Homo sapiens, UniProt P00797).
T1 sequence (P00797 whole entry): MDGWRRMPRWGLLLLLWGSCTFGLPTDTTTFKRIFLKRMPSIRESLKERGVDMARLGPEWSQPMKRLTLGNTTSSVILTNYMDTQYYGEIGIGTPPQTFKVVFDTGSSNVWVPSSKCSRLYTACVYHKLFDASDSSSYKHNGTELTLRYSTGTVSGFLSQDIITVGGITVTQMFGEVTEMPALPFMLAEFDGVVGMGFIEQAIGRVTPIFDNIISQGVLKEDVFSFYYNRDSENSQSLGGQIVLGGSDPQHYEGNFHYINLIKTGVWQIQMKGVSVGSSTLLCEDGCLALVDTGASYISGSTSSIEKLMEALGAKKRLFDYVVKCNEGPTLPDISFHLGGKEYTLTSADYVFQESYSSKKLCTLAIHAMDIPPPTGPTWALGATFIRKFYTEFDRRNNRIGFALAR
Put plainly: In vitro inhibitory activity against purified recombinant human renin.

Assay [2] has as its target Pepsin A (Sus scrofa) (UniProt P00791). In words: Inhibition against porcine pepsin; NA means no activity.
For assay [3], the target named is T2, Cathepsin D (Bos taurus) (UniProt P80209).
T2 sequence (whole entry): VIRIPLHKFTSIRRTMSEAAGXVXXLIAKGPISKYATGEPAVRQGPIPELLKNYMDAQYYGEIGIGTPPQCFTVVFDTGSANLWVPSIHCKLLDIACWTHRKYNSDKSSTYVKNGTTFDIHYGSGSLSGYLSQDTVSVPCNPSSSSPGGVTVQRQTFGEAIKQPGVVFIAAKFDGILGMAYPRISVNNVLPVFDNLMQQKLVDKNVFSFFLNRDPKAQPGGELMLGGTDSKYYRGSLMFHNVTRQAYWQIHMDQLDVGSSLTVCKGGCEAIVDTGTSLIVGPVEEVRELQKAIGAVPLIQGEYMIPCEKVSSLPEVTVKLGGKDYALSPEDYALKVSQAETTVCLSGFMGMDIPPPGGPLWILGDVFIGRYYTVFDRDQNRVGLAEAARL
Put plainly: Inhibition against bovine cathepsin D; NA means no activity.

Assay [4] addresses Human immunodeficiency virus type 1 protease (Human immunodeficiency virus 1) (UniProt Q72874). Put plainly: Inhibition against HIV protease; NA means no activity.

Calls of active or inactive are those of the source. No cut-off for these calls is given here.

Pepsin A (Sus scrofa), sequence (P00791 60-385 limits assumed): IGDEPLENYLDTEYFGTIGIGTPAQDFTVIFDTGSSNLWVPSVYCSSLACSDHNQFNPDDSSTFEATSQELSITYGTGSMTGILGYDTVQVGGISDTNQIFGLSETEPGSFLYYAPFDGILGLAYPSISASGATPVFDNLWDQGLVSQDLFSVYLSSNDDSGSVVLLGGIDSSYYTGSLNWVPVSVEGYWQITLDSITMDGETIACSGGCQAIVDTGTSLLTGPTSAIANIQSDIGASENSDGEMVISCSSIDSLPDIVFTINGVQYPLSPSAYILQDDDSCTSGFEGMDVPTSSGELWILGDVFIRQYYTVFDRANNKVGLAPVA

For `COc1ccc(CO[C@H]2CNCC[C@@H]2c2ccc(Cl)cc2)cc1`, the 50% inhibitory concentration (IC50) in assay [1] came out at 26 µM. On the same count and under the same terms, the result for `COc1ccc(CO[C@@H]2CNCC[C@H]2c2ccc(Cl)cc2)cc1` reads 1200 µM; that for `O=C(OCCOc1ccc([C@H]2CCNC[C@@H]2OCc2ccc3ccccc3c2)cc1)c1cccnc1` (racemic), 0.58 µM; that for `c1ccc(COCCOc2ccc([C@H]3CCNC[C@@H]3OCc3ccc4ccccc4c3)cc2)cc1` (racemic), 0.053 µM. On the same count and under the same terms, the result for `O=C(OCCOc1ccc([C@H]2CCNC[C@@H]2OCc2ccc3ccccc3c2)cc1)c1ccccc1` (racemic) reads 0.026 µM. The same measure, in the same setting: the result for `c1ccc(COCCCOc2ccc([C@H]3CCNC[C@@H]3OCc3ccc4ccccc4c3)cc2)nc1` (racemic) reads 0.21 µM; that for `O=S(=O)(NCc1ccc([C@H]2CCNC[C@@H]2OCc2ccc3ccccc3c2)cc1)c1ccccc1` (racemic), 40 µM. With `c1ccc(OCCCOCc2ccc([C@H]3CCNC[C@@H]3OCc3ccc4ccccc4c3)cc2)cc1` (racemic), in assay [1], the IC50 came to 0.54 µM. The same measure, in the same setting: the result for `O=C(CCCOc1ccc([C@H]2CCNC[C@@H]2OCc2ccc3ccccc3c2)cc1)c1ccccc1` (racemic) reads 0.22 µM. Still for that read-out and setting: the value for `COc1cccc(C(=O)OCc2ccc([C@H]3CCNC[C@@H]3OCc3ccc4ccccc4c3)cc2)c1` (racemic) was 0.087 µM.

Turning to `c1ccc(OCCCCOc2ccc([C@H]3CCNC[C@@H]3OCc3ccc4ccccc4c3)cc2)cc1` (racemic), in assay [1], the IC50 came out at 0.22 µM. Same read-out and setting: the result for `O=C(OCc1ccc([C@H]2CCNC[C@@H]2OCc2ccc3ccccc3c2)cc1)c1ccccc1` (racemic) reads 0.055 µM; that for `c1ccc(COCCCOc2ccc([C@H]3CCNC[C@@H]3OCc3ccc4ccccc4c3)cc2)cc1` (racemic), 0.008 µM. Same read-out and setting: the result for `c1ccc(CCOCCOc2ccc([C@H]3CCNC[C@@H]3OCc3ccc4ccccc4c3)cc2)cc1` (racemic) reads 0.16 µM. On the same count and under the same terms, the value for `c1ccc(COCCOCc2ccc([C@H]3CCNC[C@@H]3OCc3ccc4ccccc4c3)cc2)cc1` (racemic) was 0.091 µM.

As for `COc1ccc(COC2CNCCC2c2ccc(Cl)cc2)cc1` (racemic), the result in assay [2], in assay [3] and in assay [4] was inactive. The IC50 in assay [1] was determined as 50 µM. For `COc1ccccc1COCCCOc1ccc([C@H]2CCNC[C@@H]2OCc2ccc3ccccc3c2)cc1` (racemic), the IC50 in assay [1] was found to be 0.0015 µM. On the same count and under the same terms, the result for `COc1ccc(C(=O)NCc2ccc([C@H]3CCNC[C@@H]3OCc3ccc4ccccc4c3)cc2)cc1` (racemic) reads greater than 1000 µM; that for `c1ccc(OCCOCc2ccc([C@H]3CCNC[C@@H]3OCc3ccc4ccccc4c3)cc2)cc1` (racemic), 0.16 µM. The same measure, in the same setting: the result for `c1ccc(COCCCCOc2ccc([C@H]3CCNC[C@@H]3OCc3ccc4ccccc4c3)cc2)cc1` (racemic) reads 0.1 µM; that for `COc1ccccc1COCCCOc1ccc([C@H]2CCNC[C@@H]2OCc2cc(OC)c3ccccc3c2OC)cc1` (racemic), 6e-05 µM. On the same count and under the same terms, the result for `c1ccc(-c2noc(COc3ccc([C@H]4CCNC[C@@H]4OCc4ccc5ccccc5c4)cc3)n2)cc1` (racemic) reads 0.041 µM. On to `O=C(NCCOc1ccc([C@H]2CCNC[C@@H]2OCc2ccc3ccccc3c2)cc1)c1ccccc1` (racemic), for which, in assay [1], the IC50 was 2.6 µM. Same read-out and setting: the result for `c1ccc(COCCCOCc2ccc([C@H]3CCNC[C@@H]3OCc3ccc4ccccc4c3)cc2)cc1` (racemic) reads 0.74 µM. The same measure, in the same setting: the result for `c1cncc(-c2noc(COc3ccc([C@H]4CCNC[C@@H]4OCc4ccc5ccccc5c4)cc3)n2)c1` (racemic) reads 0.88 µM; that for `CC(C)(C)S(=O)(=O)C[C@@H](Cc1ccccc1)C(=O)N[C@@H](Cc1cnc[nH]1)C(=O)N[C@@H](CC1CCCCC1)[C@@H](O)[C@@H](O)C1CC1` [REMIKIREN], 2.5e-05 µM.
